Assay results from PMC10035947, “Development of novel anilinoquinazoline-based carboxylic acids as non-classical carbonic anhydrase IX and XII inhibitors” (Journal of Enzyme Inhibition and Medicinal Chemistry, 2023).

Experiments:
hCA II = molecular target: T1, hCA II (Homo sapiens, UniProt P00918); assay: stopped flow CO2 hydrase assay; assay type: biochemical; details: mean from 3 assays
T1 construct: made in house
In short: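 Stopped-flow CO2 hydration with phenol red (0.2 mM) at 557 nm in 20 mM Hepes pH 7.5, 20 mM Na2SO4, CO2 1.7–17 mM, recombinant enzyme. Inhibitor preincubated 15 min at room temperature; uncatalyzed rate subtracted, Ki via Cheng-Prusoff, mean of ≥3 determinations.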

HL-60(TB) = assay: NCI SRB assay; assay type: cell-based, human; details: HL-60(TB); for GI%: 10 μM; for Growth Percent: 1.00E-5 Molar
MOLT-4 = assay: NCI SRB assay; assay type: cell-based, human; details: for GI%: MOLT-4, 10 μM; for Growth Percent: MOLT-4, 1.00E-5 Molar
EKVX = assay: NCI SRB assay; assay type: cell-based, human; details: for GI%: 10 μM; for Growth Percent: 1.00E-5 Molar
HOP-92 = assay: NCI SRB assay; assay type: cell-based, human; details: for GI%: HOP-92, 10 μM; for Growth Percent: HOP-92, 1.00E-5 Molar
NCI-H226 = assay: NCI SRB assay; assay type: cell-based, human; details: for GI%: NCI-H226, 10 μM; for Growth Percent: NCI-H226, 1.00E-5 Molar
NCI-H322M = assay: NCI SRB assay; assay type: cell-based, human; details: for GI%: 10 μM; for Growth Percent: 1.00E-5 Molar
NCI-H460 = assay: NCI SRB assay; assay type: cell-based, human; details: for GI%: NCI-H460, 10 μM; for Growth Percent: NCI-H460, 1.00E-5 Molar
COLO 205 = assay: NCI SRB assay; assay type: cell-based, human; details: for GI%: COLO 205, 10 μM; for Growth Percent: COLO 205, 1.00E-5 Molar
HCT-116 = assay: NCI SRB assay; assay type: cell-based, human; details: for GI%: HCT-116, 10 μM; for Growth Percent: HCT-116, 1.00E-5 Molar
KM12 = assay: NCI SRB assay; assay type: cell-based, human; details: for GI%: KM12, 10 μM; for Growth Percent: KM12, 1.00E-5 Molar
SW-620 = assay: NCI SRB assay; assay type: cell-based, human; details: for GI%: SW-620, 10 μM; for Growth Percent: SW-620, 1.00E-5 Molar
SF-295 = assay: NCI SRB assay; assay type: cell-based, human; details: for GI%: SF-295, 10 μM; for Growth Percent: SF-295, 1.00E-5 Molar
SNB-19 = assay: NCI SRB assay; assay type: cell-based, human; details: for GI%: SNB-19, 10 μM; for Growth Percent: SNB-19, 1.00E-5 Molar
SNB-75 = assay: NCI SRB assay; assay type: cell-based, human; details: for GI%: SNB-75, 10 μM; for Growth Percent: SNB-75, 1.00E-5 Molar
LOX IMVI = assay: NCI SRB assay; assay type: cell-based, human; details: for GI%: 10 μM; for Growth Percent: 1.00E-5 Molar
SK-MEL-2 = assay: NCI SRB assay; assay type: cell-based, human; details: for GI%: SK-MEL-2, 10 μM; for Growth Percent: SK-MEL-2, 1.00E-5 Molar
UACC-62 = assay: NCI SRB assay; assay type: cell-based, human; details: for GI%: UACC-62, 10 μM; for Growth Percent: UACC-62, 1.00E-5 Molar
NCI/ADR-RES = assay: NCI SRB assay; assay type: cell-based, human; details: for GI%: 10 μM; for Growth Percent: 1.00E-5 Molar
SK-OV-3 = assay: NCI SRB assay; assay type: cell-based, human; details: for GI%: SK-OV-3, 10 μM; for Growth Percent: SK-OV-3, 1.00E-5 Molar
CAKI-1 = assay: NCI SRB assay; assay type: cell-based, human; details: for GI%: CAKI-1, 10 μM; for Growth Percent: CAKI-1, 1.00E-5 Molar
SN12C = assay: NCI SRB assay; assay type: cell-based, human; details: SN12C; for Growth Percent: 1.00E-5 Molar
TK-10 = assay: NCI SRB assay; assay type: cell-based, human; details: for Growth Percent: TK-10, 1.00E-5 Molar
PC-3 = assay: NCI SRB assay; assay type: cell-based, human; details: for GI%: PC-3, 10 μM; for Growth Percent: PC-3, 1.00E-5 Molar
MDA-MB-468 = assay: NCI SRB assay; assay type: cell-based, human; details: for GI%: MDA-MB-468, 10 μM; for Growth Percent: MDA-MB-468, 1.00E-5 Molar
[1] = system: 59 human cancer cell lines representing nine tumour subpanels; assay: NCI SRB assay, panel and subpanel summaries; details: all cell lines; for Mean GI %: 10 μM; for Mean Growth Percent: 1.00E-5 Molar

Cc1cccc(-c2nc(Nc3ccc(C(=O)O)cc3)c3ccccc3n2)c1 [8a, 4-((2-(m-Tolyl)quinazolin-4-yl)amino)benzoic acid]
Ki (hCA II): 9.3 µM
GI% (HL-60(TB)): – (Only GI% higher than 20% are shown)
Growth Percent (HL-60(TB)): 92.72%
GI% (MOLT-4): 22%
Growth Percent (MOLT-4): 78.39%
GI% (EKVX): – (Only GI% higher than 20% are shown)
Growth Percent (EKVX): 82.93%
GI% (HOP-92): 29%
Growth Percent (HOP-92): 71.13%
GI% (NCI-H226): 52%
Growth Percent (NCI-H226): 47.62%
GI% (NCI-H322M): – (Only GI% higher than 20% are shown)
Growth Percent (NCI-H322M): 103.28%
GI% (NCI-H460): 22%
Growth Percent (NCI-H460): 78.01%
GI% (COLO 205): – (Only GI% higher than 20% are shown)
Growth Percent (COLO 205): 135.98%
GI% (HCT-116): – (Only GI% higher than 20% are shown)
Growth Percent (HCT-116): 81.80%
GI% (KM12): 23%
Growth Percent (KM12): 76.63%
GI% (SW-620): – (Only GI% higher than 20% are shown)
Growth Percent (SW-620): 84.27%
GI% (SF-295): 36%
Growth Percent (SF-295): 63.92%
GI% (SNB-19): 33%
Growth Percent (SNB-19): 67.24%
GI% (SNB-75): – (Only GI% higher than 20% are shown)
Growth Percent (SNB-75): 100.40%
GI% (LOX IMVI): 29%
Growth Percent (LOX IMVI): 71.49%
GI% (SK-MEL-2): – (Only GI% higher than 20% are shown)
Growth Percent (SK-MEL-2): 123.11%
GI% (UACC-62): – (Only GI% higher than 20% are shown)
Growth Percent (UACC-62): 104.52%
GI% (NCI/ADR-RES): – (Only GI% higher than 20% are shown)
Growth Percent (NCI/ADR-RES): 84.58%
GI% (SK-OV-3): – (Only GI% higher than 20% are shown)
Growth Percent (SK-OV-3): 108.70%
GI% (CAKI-1): – (Only GI% higher than 20% are shown)
Growth Percent (CAKI-1): 94.53%
GI% (SN12C; 10 μM): 42%
Growth Percent (SN12C): 58.07%
GI% (TK-10; TK-10, 10 μM): – (Only GI% higher than 20% are shown)
Growth Percent (TK-10): 91.50%
GI% (PC-3): – (Only GI% higher than 20% are shown)
Growth Percent (PC-3): 83.31%
GI% (MDA-MB-468): – (Only GI% higher than 20% are shown)
Growth Percent (MDA-MB-468): 113.23%
Mean GI % [1]: 16%
Mean Growth Percent [1]: 84.51%

COc1ccc(-c2nc(Nc3ccccc3C(=O)O)c3ccccc3n2)cc1 [6c, 2-((2–(4-Methoxyphenyl)quinazolin-4-yl)amino)benzoic acid]
Ki (hCA II): 83.1 µM
GI% (HL-60(TB)): 67%
Growth Percent (HL-60(TB)): 32.98%
GI% (MOLT-4): 64%
Growth Percent (MOLT-4): 36.24%
GI% (EKVX): 66%
Growth Percent (EKVX): 33.92%
GI% (HOP-92): 78%
Growth Percent (HOP-92): 21.82%
GI% (NCI-H226): 47%
Growth Percent (NCI-H226): 53.45%
GI% (NCI-H322M): 24%
Growth Percent (NCI-H322M): 75.73%
GI% (NCI-H460): 89%
Growth Percent (NCI-H460): 11.57%
GI% (COLO 205): – (Only GI% higher than 20% are shown)
Growth Percent (COLO 205): 81.88%
GI% (HCT-116): 62%
Growth Percent (HCT-116): 37.54%
GI% (KM12): 64%
Growth Percent (KM12): 35.66%
GI% (SW-620): 61%
Growth Percent (SW-620): 39.05%
GI% (SF-295): 60%
Growth Percent (SF-295): 39.93%
GI% (SNB-19): 55%
Growth Percent (SNB-19): 45.59%
GI% (SNB-75): 68%
Growth Percent (SNB-75): 32.48%
GI% (LOX IMVI): 50%
Growth Percent (LOX IMVI): 49.53%
GI% (SK-MEL-2): 57%
Growth Percent (SK-MEL-2): 43.49%
GI% (UACC-62): 44%
Growth Percent (UACC-62): 55.88%
GI% (NCI/ADR-RES): 46%
Growth Percent (NCI/ADR-RES): 54.40%
GI% (SK-OV-3): 53%
Growth Percent (SK-OV-3): 47.19%
GI% (CAKI-1): 53%
Growth Percent (CAKI-1): 46.89%
Growth Percent (SN12C): 47.71%
Growth Percent (TK-10): 74.99%
GI% (PC-3): 60%
Growth Percent (PC-3): 40.04%
GI% (MDA-MB-468): 57%
Growth Percent (MDA-MB-468): 42.97%
Mean GI % [1]: 52%
Mean Growth Percent [1]: 48.18%
